Results reported in US20240209028A1, “CNP COMPOUNDS” (priority 2022, published 2024).
Starred links: 1 amine or outer side, 2 acyl side, 3 side chain; linkers in the order of their positions; H or OH if unused. Positions of bridges follow the written chain, without caps; N, C: chain ends. Residues, ends and D or L forms follow the SMILES beside them. *: point of attachment. C18 diacid = O=C(O)CCCCCCCCCCCCCCCCC(=O)*; γGlu = O=C(O)[C@H](CCC(=O)[*:2])N[*:1]; AEEA = NCCOCCOCC(=O)O

Biological target: T1, human natriuretic peptide receptor 2 (hNPR2) (Homo sapiens, UniProt P20594)
T1 construct: expressed in transfected cells; host or cells: HEK293 (ATCC CRL-1573), clone 35, co-transfected with pGloSensor-42F
T1 sequence (P20594 23-1047): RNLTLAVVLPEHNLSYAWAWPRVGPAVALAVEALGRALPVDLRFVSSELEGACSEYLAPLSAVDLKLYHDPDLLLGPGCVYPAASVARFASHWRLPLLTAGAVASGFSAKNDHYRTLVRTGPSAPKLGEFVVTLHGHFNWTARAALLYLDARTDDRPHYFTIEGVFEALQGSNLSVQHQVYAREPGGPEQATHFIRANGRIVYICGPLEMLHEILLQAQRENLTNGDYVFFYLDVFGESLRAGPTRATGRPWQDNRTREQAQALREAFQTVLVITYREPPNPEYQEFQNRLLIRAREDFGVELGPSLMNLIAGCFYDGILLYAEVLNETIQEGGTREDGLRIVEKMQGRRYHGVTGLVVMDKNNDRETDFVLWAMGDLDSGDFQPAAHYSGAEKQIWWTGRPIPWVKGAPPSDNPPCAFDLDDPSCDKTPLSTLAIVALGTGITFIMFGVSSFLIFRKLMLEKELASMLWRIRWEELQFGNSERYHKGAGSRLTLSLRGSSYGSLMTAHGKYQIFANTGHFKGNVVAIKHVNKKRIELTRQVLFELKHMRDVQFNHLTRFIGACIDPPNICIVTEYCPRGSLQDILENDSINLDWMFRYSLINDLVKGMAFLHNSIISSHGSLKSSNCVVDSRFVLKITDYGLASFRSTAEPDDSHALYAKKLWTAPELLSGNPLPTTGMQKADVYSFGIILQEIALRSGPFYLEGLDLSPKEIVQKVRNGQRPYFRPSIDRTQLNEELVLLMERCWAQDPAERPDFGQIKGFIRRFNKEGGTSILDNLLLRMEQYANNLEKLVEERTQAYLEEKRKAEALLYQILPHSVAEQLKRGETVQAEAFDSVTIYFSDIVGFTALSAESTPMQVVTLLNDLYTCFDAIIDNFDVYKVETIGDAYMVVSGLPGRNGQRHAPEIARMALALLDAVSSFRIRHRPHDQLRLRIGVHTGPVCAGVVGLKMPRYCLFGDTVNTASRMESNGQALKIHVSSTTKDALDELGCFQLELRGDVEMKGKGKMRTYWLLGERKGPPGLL
Assay: In vitro hNPR2 activity assay (cGMP GloSensor reporter, HEK293)
Assay type: cell-based
Settings: for hNPR2 0% HSA. [EC50% rel CNP]: potency relative to CNP22 (0065)
Summary of the method: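 Potency is the EC50 from a four-parameter logistic fit, also expressed relative to the in-plate CNP22 control (×100), with at least two replicates. Compounds (ten concentrations, […], HSA-free diluent with 1% OVA, 0.01% Tween20) were incubated 30 min at 37 °C on HEK293 cells co-expressing hNPR2 and a GloSensor cGMP luciferase. Luminescence detected with Bright-Glo.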

Structure (SMILES)	hNPR2 0% HSA. [EC50% rel CNP] [%]	EC50 (0% HSA, HEK293-hNPR2/GloSensor cells) [nM]
CC[C@H](C)[C@@H]1NC(=O)[C@H](CCCNC(=N)N)NC(=O)[C@H](CC(=O)O)NC(=O)[C@H](CC(C)C)NC(=O)[C@@H]2CCCN2C(=O)[C@H](CC(C)C)NC(=O)CNC(=O)[C@H](Cc2ccccc2)NC(=O)[C@@H](NC(=O)CNC(=O)[C@H](CCC(N)=O)NC(=O)[C@H](CO)NC(=O)CNC(=O)CNC(=O)[C@H](CCCCN)NC(=O)[C@H](CCCCN)NC(=O)[C@H](CCC(N)=O)NC(=O)[C@H](C)NC(=O)CNC(=O)[C@H](CCCCN)NC(=O)[C@H](Cc2ccc(O)cc2)NC(=O)COCCOCCNC(=O)COCCOCCNC(=O)COCCOCCNC(=O)COCCOCCNC(=O)CC[C@H](NC(=O)CC[C@H](NC(=O)CCCCCCCCCCCCCCCCC(=O)O)C(=O)O)C(=O)O)CSSC[C@@H](C(=O)O)NC(=O)CNC(=O)[C@H](CC(C)C)NC(=O)CNC(=O)[C@H](CO)NC(=O)[C@H](CC(C)C)NC(=O)[C@H](CO)NC(=O)CNC1=O [compound 9435] ({C18 diacid-γGlu-γGlu-AEEA-AEEA-AEEA-AEEA}-YKGAQKKGGSQGCFGLPLDRIGSLSGLGC-OH; disulfide 13-29; C-terminus assumed)	73.6	–
CC[C@H](C)[C@@H]1NC(=O)[C@H](CCCNC(=N)N)NC(=O)[C@H](CC(=O)O)NC(=O)[C@H](CC(C)C)NC(=O)[C@@H]2CCCN2C(=O)[C@H](CC(C)C)NC(=O)CNC(=O)[C@H](Cc2ccccc2)NC(=O)[C@@H](NC(=O)CNC(=O)[C@H](CCC(N)=O)NC(=O)[C@H](CO)NC(=O)[C@H](CC(C)C)NC(=O)CNC(=O)[C@H](CCCCN)NC(=O)[C@H](CCCCN)NC(=O)[C@H](CCC(N)=O)NC(=O)[C@H](C)NC(=O)CNC(=O)[C@H](CCCCN)NC(=O)[C@H](Cc2ccc(O)cc2)NC(=O)COCCOCCNC(=O)COCCOCCNC(=O)COCCOCCNC(=O)COCCOCCNC(=O)CC[C@H](NC(=O)CC[C@H](NC(=O)CC[C@H](NC(=O)CCCCCCCCCCCCCCCCC(=O)O)C(=O)O)C(=O)O)C(=O)O)CSSC[C@@H](C(=O)O)NC(=O)CNC(=O)[C@H](CC(C)C)NC(=O)CNC(=O)[C@H](CO)NC(=O)[C@H](CC(C)C)NC(=O)[C@H](CO)NC(=O)CNC1=O [compound 9480] ({C18 diacid-γGlu-γGlu-γGlu-AEEA-AEEA-AEEA-AEEA}-YKGAQKKGLSQGCFGLPLDRIGSLSGLGC-OH; disulfide 13-29)	45.2	–
CC[C@H](C)[C@@H]1NC(=O)[C@H](CCCNC(=N)N)NC(=O)[C@H](CC(=O)O)NC(=O)[C@H](CC(C)C)NC(=O)[C@@H]2CCCN2C(=O)[C@H](CC(C)C)NC(=O)CNC(=O)[C@H](Cc2ccccc2)NC(=O)[C@@H](NC(=O)CNC(=O)[C@H](CO)NC(=O)[C@H](CO)NC(=O)[C@H](CC(C)C)NC(=O)CNC(=O)[C@H](CCCCN)NC(=O)[C@H](CCCCN)NC(=O)[C@H](CCC(N)=O)NC(=O)[C@H](C)NC(=O)CNC(=O)[C@H](CCCCN)NC(=O)[C@H](Cc2ccc(O)cc2)NC(=O)[C@H](CCCCN)NC(=O)[C@H](CCCNC(=N)N)NC(=O)[C@H](C)NC(=O)[C@H](CCC(N)=O)NC(=O)[C@@H]2CCCN2C(=O)[C@H](Cc2c[nH]cn2)NC(=O)[C@H](CCC(=O)O)NC(=O)[C@H](CCC(N)=O)NC(=O)CC[C@H](NC(=O)CC[C@H](NC(=O)CC[C@H](NC(=O)CC[C@H](NC(=O)CC[C@H](NC(=O)CCCCCCCCCCCCCCCCC(=O)O)C(=O)O)C(=O)O)C(=O)O)C(=O)O)C(=O)O)CSSC[C@@H](C(=O)O)NC(=O)CNC(=O)[C@H](CC(C)C)NC(=O)CNC(=O)[C@H](CO)NC(=O)[C@H](CC(C)C)NC(=O)[C@H](CO)NC(=O)CNC1=O [compound 9482] ({C18 diacid-γGlu-γGlu-γGlu-γGlu-γGlu}-QEHPQARKYKGAQKKGLSSGCFGLPLDRIGSLSGLGC-OH; disulfide 21-37)	39.4	–
CC[C@H](C)[C@@H]1NC(=O)[C@H](CCCNC(=N)N)NC(=O)[C@H](CCC(=O)O)NC(=O)[C@H](CC(C)C)NC(=O)[C@@H]2CCCN2C(=O)[C@H](CC(C)C)NC(=O)CNC(=O)[C@H](Cc2ccccc2)NC(=O)[C@@H](NC(=O)CNC(=O)[C@H](CO)NC(=O)[C@H](CO)NC(=O)[C@H](CC(C)C)NC(=O)CNC(=O)[C@H](CCCCN)NC(=O)[C@H](CCCCN)NC(=O)[C@H](CCC(N)=O)NC(=O)[C@H](C)NC(=O)CNC(=O)[C@H](CCCCN)NC(=O)[C@H](Cc2ccc(O)cc2)NC(=O)[C@H](CCCCN)NC(=O)[C@H](CCCNC(=N)N)NC(=O)[C@H](C)NC(=O)[C@H](CCC(N)=O)NC(=O)[C@@H]2CCCN2C(=O)[C@H](Cc2c[nH]cn2)NC(=O)[C@H](CCC(=O)O)NC(=O)[C@H](CCC(N)=O)NC(=O)CC[C@H](NC(=O)CC[C@H](NC(=O)CC[C@H](NC(=O)CC[C@H](NC(=O)CCCCCCCCCCCCCCCCC(=O)O)C(=O)O)C(=O)O)C(=O)O)C(=O)O)CSSC[C@@H](C(=O)O)NC(=O)CNC(=O)[C@H](CC(C)C)NC(=O)CNC(=O)[C@H](CO)NC(=O)[C@H](CC(C)C)NC(=O)[C@H](CO)NC(=O)CNC1=O [compound 9483] ({C18 diacid-γGlu-γGlu-γGlu-γGlu}-QEHPQARKYKGAQKKGLSSGCFGLPLERIGSLSGLGC-OH; disulfide 21-37)	10.2	0.3
